Data: patent US10450335B2, “Antiviral oxime phosphoramide compounds” (Merck Sharp & Dohme Corp., priority 2015, dated 2019)
Read-outs that look alike come from different tables or passages of the source.

Assays:
HIV-1 (H9/IIIB strain) = test: Viking assay: antiviral potency in a multiple round HIV-1 infection assay in MT4-GFP cells; type: cell-based; settings: Human immunodeficiency virus 1, IIIB, MT4-GFP cells infected with HIV-1 H9/IIIB, inhibition of reproductive ratio R0
Protocol: Assessing Antiviral Potency in a Multiple Round HIV-1 Infection Assay (Viking Assay)
The antiviral activity of the tenofovir prodrugs of the Examples herein was assessed in an assay that measures the rate of replication of HIV in cell culture, termed the Viking assay (VIral KINetics in Green cells) and performed as follows. HIV-1 replication was monitored using MT4-gag-GFP clone D3 (hereafter designated MT4-GFP), which are MT-4 cells modified to harbor a GFP reporter gene, the expression of which is dependent on the HIV-1 expressed proteins tat and rev. Productive infection of an MT4-GFP cell with HIV-1 results in GFP expression approximately 24 h post-infection. MT4-GFP cells were maintained at 37° C./5% CO2/90% relative humidity in RPMI 1640 supplemented with 10% fetal bovine serum, 100 U/ml penicillin/streptomycin, and 400 μg/ml G418 to maintain the reporter gene. For infections, MT4-GFP cells were placed in the same medium lacking G418 and infected overnight with HIV-1 (H9/IIIB strain) virus at an approximate multiplicity of infection of 0.01 in the same incubation conditions. Cells were then washed and re-suspended in either RPMI 1640 supplemented with 10% or 50% normal human serum (NHS) at 1.6×10^5 cells/mL (10% NHS or 50% NHS, respectively). Compound plates were prepared by dispensing compounds dissolved in DMSO into wells of 384 well poly-D-lysine-coated plates (0.2 μl/well) using an ECHO acoustic dispenser. Each compound was tested in a 10-point serial 3-fold dilution (typical final concentrations: 8.4 μM-0.42 nM). Controls included no inhibitor (DMSO only) and a combination of three antiviral agents (efavirenz, indinavir, an in-house integrase strand transfer inhibitor at final concentrations of 4 μM each). Cells were added (50 μL/well) to compound plates and the infected cells were maintained at 37° C./5% CO2/90% relative humidity.
Infected cells were quantified at two time points, ˜48 h and ˜72 h post-infection, by counting the number of green cells in each well using an Acumen eX3 scanner. The increase in the number of green cells over ˜24 h period gives the reproductive ratio, R0, which is typically 5-15 and has been shown experimentally to be in logarithmic phase (data not shown). Inhibition of R0 is calculated for each well, and IC50s determined by non-linear 4-parameter curve fitting.

[1] = Prodrug stability assay in bio-relevant media (FaSSIF with Pancreatin, GI tract stability); type: in vitro ADME; settings: HPLC peak area of prodrug at 5 h / 0 h, 0.5 mg/mL Pancreatin in FaSSIF, 37° C.
Protocol: Prodrug Stability Assay in Bio-Relevant Media
The following assay was employed to evaluate the stability of the prodrugs in simulated gastrointestinal tract conditions. Preparation of fasted state simulated intestinal fluid (FaSSIF) using Phares SIF Powder was carried out according to protocols from Phare Drug Delivery AG (Baselland, Switzerland). For sample preparation, 10 μL stock solutions (10 mM) of prodrug substance in DMSO was added to 990 μL of 0.5 mg/mL Pancreatin solution (Fisher CAS#8049-47-6) in FaSSIF. Two samples were prepared for each compound. If the sample was a clear solution, it was directly analyzed by HPLC. If the sample was not clear, the sample was […] at 37° C. and observed 5 h later. If the sample was clear, HPLC analysis was directly performed. If the sample was still not clear, the sample was diluted with 100% ACN and assayed by HPLC. All the samples were vortexed for 3 min and observed before injection. For the diluted samples, the area is multiplied by a dilution factor when the data is analyzed. The analysis was carried out with an Agilent 1100 series HPLC with autosampler. The column was a Poroshell 120 EC-C18, 4.6×50 mm, […]. The flow rate was 1.8 mL/min, and the injection volume was 5 or 10 μL. UV detection was in the range 210-400 nm. The mobile phase consisted of solvent A (water plus 10 mM tetrabutylammonium bromide) and solvent B (acetonitrile) with a gradient of: 90% solvent A at 0 min, changing to 95% solvent B over 6 min, maintaining for 1.5 min, then reverting to 90% solvent A over 1.6 min. The HPLC peak area of the prodrug at 5 h was divided by the HPLC peak area of the prodrug at 0 h, to generate the % claimed parent ratio, which is summarized in Table 2 for gastrointestinal (GI) Tract stability.

[2] = 10% normal human serum, read-out: Viking, IC50 (10% NHS)
[3] = 50% normal human serum, read-out: Viking, IC50 (50% NHS)

Row | SMILES | IC50 (HIV-1 (H9/IIIB strain); [2]) | IC50 (HIV-1 (H9/IIIB strain); [3]) | GI Tract stability [1]
1 | CC(C)OC(=O)[C@H](C)NP(=O)(CO[C@H](C)Cn1cnc2c(N)ncnc21)ON=C(C1CC1)C1CC1 (stereo partly drawn) [Example 10, isopropyl (((((R)-1-(6-amino-9H-purin-9-yl)propan-2-yl)oxy)methyl)(((dicyclopropylmethyl-ene)amino)oxy)phosphoryl)-L-alaninate] | 46.8 nM | 228 nM | 95.0%
2 | CC(C)CC(CC(C)C)=NOP(=O)(CO[C@H](C)Cn1cnc2c(N)ncnc21)NC(C)(C)C(=O)OC(C)C (single isomer, unassigned) [Example 28] | 0.7 nM | 3.8 nM | 93.1%
3 | CC(C)CC(CC(C)C)=NOP(=O)(CO[C@H](C)Cn1cnc2c(N)ncnc21)N[C@@H](C)C(=O)OC(C)C (stereo partly drawn) [Example 12, isopropyl (((R)-(((R)-1-(6-amino-9H-purin-9-yl)propan-2-yl)oxy)methyl)(((2,6-dimethylheptan-4-ylidene)amino)oxy)phosphoryl)-L-alaninate; and isopropyl (((S)-(((R)-1-(6-amino-9H-purin-9-yl)propan-2-yl)oxy)methyl)(((2,6-dimethylheptan-4-ylidene)amino)oxy)phosphoryl)-L-alaninate] | – | – | 17.6%
4 | CC(C)OC(=O)[C@H](C)NP(=O)(CO[C@H](C)Cn1cnc2c(N)ncnc21)ON=C1CCCC1 (stereo partly drawn) [Example 13, isopropyl (((R)-(((R)-1-(6-amino-9H-purin-9-yl)propan-2-yl)oxy)methyl)((cyclopentylidene-amino)oxy)phosphoryl)-L-alaninate; and isopropyl (((S)-(((R)-1-(6-amino-9H-purin-9-yl)propan-2-yl)oxy)methyl)((cyclopentylidene-amino)oxy)phosphoryl)-L-alaninate] | – | – | 95.7%
